Measured values reported in patent publication US20240316079A1, “USE OF AKR1C3-ACTIVATED COMPOUND” (OBI PHARMA, INC., priority 2021, published 2024).

Tests used:
[1] = tested on: HLE; test: In vitro proliferation assay, liver cancer cell line HLE; format: cell-based; conditions: Homo sapiens, 96 hours of drug exposure, AKR1C3 protein Medium, read-out: 3424 IC50
Method: (§1) IC50 was calculated as described above.

[2] = tested on: SNU-449; test: In vitro proliferation assay, liver cancer cell line SNU-449; format: cell-based; conditions: Homo sapiens, 96 hours of drug exposure, AKR1C3 protein high, read-out: 3424 IC50
Method: as §1

[3] = tested on: NCI-H1792; test: In vitro proliferation assay, NSCLC cell line NCI-H1792; format: cell-based; conditions: Homo sapiens, 72 hours of drug exposure, read-out: 3424 IC50
Method: as §1

[4] = tested on: GA6201 PDX; test: Gastric cancer PDX model GA6201; format: in vivo, mice
Method: (§2) Anti-tumor activity of 3424 in PDX models was assessed at CrownBio Bioscience (Beijing, China) Inc. using female BALB/c nude mice (6-7 weeks old, Beijing Anikeeper Biotech Co., Ltd, Beijing, China). Tumor fragments (PA1280, GA6201, LU2057 and LU2505) from stock mice inoculated with selected primary human cancer tissues (pancreatic, gastric cancer, and lung) were harvested and used for inoculation into BALB/c nude mice. Each mouse was inoculated subcutaneously for tumor development. Mice were allocated randomly into experimental groups when the average tumor size reached ˜100 mm^3) by using StudyDirector™ Ver 3.1.399.19 (Studylog Systems, Inc., S. San Francisco, CA, USA). Prodrug 3424 was administered IV at the indicated doses with a regimen of Q7D×3. Each group consisted of 5-6 mice. The grouping day was denoted as Day 0. Prodrug 3424 was administrated to the tumor-bearing mice from Day 0 through Days as indicated for each study.

[5] = tested on: PLC/PRF/5; test: In vitro proliferation assay, liver cancer cell line PLC/PRF/5; format: cell-based; conditions: Homo sapiens, 96 hours of drug exposure, AKR1C3 protein Medium, read-out: 3424 IC50
Method: as §1

[6] = tested on: NCIH1755; test: In vitro proliferation assay, NSCLC cell line NCIH1755; format: cell-based; conditions: Homo sapiens, NCI-H1755, 72 hours of drug exposure, read-out: 3424 IC50
Method: as §1

[7] = tested on: NCI-H522; test: In vitro proliferation assay, NSCLC cell line NCI-H522; format: cell-based; conditions: Homo sapiens, 72 hours of drug exposure, read-out: 3424 IC50
Method: as §1

[8] = tested on: PA1280 PDX; test: Pancreatic cancer PDX model PA1280; format: in vivo, mice
Method: as §2

[9] = tested on: NCI-H2228; test: In vitro proliferation assay, NSCLC cell line NCI-H2228; format: cell-based, human
Method: as §1

[10] = tested on: NCIH2106; test: In vitro proliferation assay, NSCLC cell line NCIH2106; format: cell-based; conditions: Homo sapiens, 72 hours of drug exposure, read-out: 3424 IC50
Method: as §1

[11] = tested on: LU2505 PDX; test: Lung cancer PDX model LU2505 (higher AKR1C3); format: in vivo, mice
Method: as §2

[12] = tested on: NCI-H2110; test: In vitro proliferation assay, NSCLC cell line NCI-H2110; format: cell-based; conditions: Homo sapiens, 72 hours of drug exposure, read-out: 3424 IC50
Method: as §1

[13] = tested on: NCI-H23; test: In vitro proliferation assay, NSCLC cell line NCI-H23; format: cell-based; conditions: Homo sapiens, 72 hours of drug exposure, read-out: 3424 IC50
Method: as §1

[14] = target: T1, recombinant human AKR1C4 (Homo sapiens, UniProt P17516); test: Incubation of 3424 with AKR1C4 (2660 production, LC-MS/MS); format: biochemical
T1 construct: purchased Sigma

[15] = tested on: SNU-398; test: In vitro proliferation assay, liver cancer cell line SNU-398; format: cell-based; conditions: Homo sapiens, 96 hours of drug exposure, AKR1C3 protein Low, read-out: 3424 IC50
Method: as §1

[16] = tested on: SNU-387; test: In vitro proliferation assay, liver cancer cell line SNU-387; format: cell-based; conditions: Homo sapiens, 96 hours of drug exposure, AKR1C3 protein Medium, read-out: 3424 IC50
Method: as §1

[17] = tested on: C3A; test: In vitro proliferation assay, liver cancer cell line C3A; format: cell-based; conditions: Homo sapiens, 96 hours of drug exposure, AKR1C3 protein high, read-out: 3424 IC50
Method: as §1

[18] = tested on: SNU-182; test: In vitro proliferation assay, liver cancer cell line SNU-182; format: cell-based; conditions: Homo sapiens, 96 hours of drug exposure, AKR1C3 protein Low, read-out: 3424 IC50
Method: as §1

[19] = tested on: VCaP xenograft; test: Castration-resistant prostate cancer VCaP xenograft model
Method: Death and observed clinical signs were recorded on the basis of the numbers of animals within each subset.

T1 sequence (P17516 whole entry): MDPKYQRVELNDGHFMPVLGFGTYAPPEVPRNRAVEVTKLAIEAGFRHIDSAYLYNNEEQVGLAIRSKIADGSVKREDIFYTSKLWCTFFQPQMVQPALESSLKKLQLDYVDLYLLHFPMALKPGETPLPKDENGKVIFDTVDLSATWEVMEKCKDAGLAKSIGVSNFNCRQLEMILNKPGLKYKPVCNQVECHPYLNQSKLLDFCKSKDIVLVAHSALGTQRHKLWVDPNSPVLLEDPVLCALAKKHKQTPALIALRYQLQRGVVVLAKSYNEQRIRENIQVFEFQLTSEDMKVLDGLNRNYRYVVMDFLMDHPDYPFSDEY

C[C@H](OP(=O)(N1CC1)N1CC1)c1ccc([N+](=O)[O-])c(Oc2cccc(C(=O)N(C)C)c2)c1 [Compound 3424, (S)-1-(3-(3-N,N-dimethylaminocarbonyl)phenoxyl-4-mtrophenyl)-1-ethyl-N,N′-bis(ethylene)phosphoramidate]
IC50 [1]: 113 nM | IC50 [2]: 45 nM | IC50 [3]: 4.5 nM | TGI ([4]; 3424 5 mg/kg i.v. Q7D × 3): 110% | mice remaining tumor free ([4]; 3424 5 mg/kg, at the end of the study): 60% | tolerability / body weight loss ([4]; GA6201, all tested doses): no body weight loss | IC50 [5]: 167 nM | IC50 [6]: 8.2 nM | IC50 [7]: > 1000 nM | TGI ([8]; 3424 2.5 mg/kg i.v. Q7D × 3): 77.4% | tolerability / body weight loss ([8]; PA1280, all tested doses): no body weight loss | IC50 ([9]; Homo sapiens, NCI-H2228, 72 hours of drug exposure, read-out: 3424 IC50): 0.21 nM | enhanced cytotoxicity in line expressing high AKR1C3 versus low/no AKR1C3 ([9]; NCI-H2228 NSCLC line): up to 5000 fold | IC50 [10]: > 1000 nM | TGI ([11]; 3424 1.25 mg/kg i.v. Q7D × 3): 105.0% | TGI ([11]; 3424 2.5 mg/kg i.v. Q7D × 3): 105.2% | TGI ([11]; 3424 5 mg/kg i.v. Q7D × 3): 105.2% | tolerability / body weight loss ([11]; LU2505, all tested doses): no body weight loss | IC50 [12]: 1.1 nM | IC50 [13]: > 1000 nM | metabolism by AKR1C4 [14]: not metabolized | 2660 Concentration ([14]; 3424 concentration 50 μM, incubation with AKR1C4, BQL: below quantification limit (0.25 ng/mL)): BQL | IC50 [15]: > 1000 nM | IC50 [16]: 103 nM | IC50 [17]: 5 nM | IC50 [18]: > 1000 nM | TGI ([19]; 3424 5 mg/kg weekly IV for 5 doses, castrated male BALB/c nude mice): 148% | tolerability / body weight loss during treatment ([19]; VCaP model, data not shown): no significant body weight loss
